Values joined by “and” are separate entries in the source; they are usually repeats but may differ in a detail not shown here. Equal entries are not always repeated.
What was measured:
[1] = Reactivity towards glutathione, ligand release (HR-MS, UV-vis); assay type: physicochemical
Source text: NMR- and MS-based stability studies.
Intriguingly, the reactivity of Au^III-metformin complexes towards GSH was drastically different despite their similar structures.

[2] = Protocol: (§1) Animal experiments: 6-week-old female athymic nude mice were purchased from Invigo. Animals were housed in animal-holding units at Center for Comparative Medicine, Northwestern University in a pathogen-free environment at constant temperature in a 12/12-hour light/dark cycle. All animal procedures were carried out in accordance with a protocol approved by the Institutional Animal Care and Use Committee, Protocol number: IS00002999. Animals were acclimatized for 2 weeks following arrival before the beginning of experiments. Mice were allowed free access to food and water. […] MDA-MB-231 cells expressing firefly luciferase were collected by trypsinization and mixed with Matrigel (1:1) for fat pad injections. The MDA-MB-231 cell/matrigel mixture (100 μI) was injected into the fat pad of the fourth mammary glands on both sides of 6-week-old female athymic nude-Foxn1^nu mice (Envigo) at 2.5×10^5 cells/gland under ketamine/xylazine anesthesia (50-100/5-10 mg/kg). Ketaprofen and Buprenophrine SR were injected subcutaneously for pain management at 2-5 mg/kg and 0.5-1 mg/kg, respectively. The growth of tumors was monitored by live animal imaging. Once tumors became palpable (week 2 after tumor implantation), treatment was initiated. Animals were separated into two groups (7 mice in each group) and tumor dimensions were measured using a caliper by width×length (mm^2). […] Animals were sacrificed on week 6. Animals were controlled for distress development. Their weight changes were monitored every 2-3 days for 6 weeks. […] Statistical analysis was done by Student's unpaired T-test and One-way Anova test with post-hoc Dunnett test using GraphPad Prism 9 software.
The tolerability of the chosen dose level was judged based on the weight loss and clinical score.

MDA-MB-231 tumors [3] = tested on: MDA-MB-231 tumors
Protocol: as §1
Luciferase-transfected MDA-MB-231 cells were injected into […] 2 fat pads near inguinal nipples and tumor growth was controlled by bioluminescent imaging.

MDA-MB-231 cells [4] = tested on: MDA-MB-231 cells
Protocol: (§2) Inhibition of cell viability assay. The cytotoxicity of the compounds was determined by colorimetric MTT assay. The cells were harvested from culture flasks by trypsinization and seeded into Cellstar 96-well microculture plates at the seeding density of 6000 cells per well (6×10^4 cells/mL). TAMH and AC10 cells were seeded at 12000 and 5000 cells per well, respectively. After cells were allowed to resume exponential growth for 24 hours, they were exposed to drugs at different concentrations in media for 72 hours. The drugs were diluted in complete medium at the desired concentration and added to each well (100 μL) and serially diluted to other wells. After exposure for 72 hours, the media was replaced with MTT in media (5 mg/mL, 100 μL) and incubated for additional 45 minutes. Subsequently, the medium was aspirated and the purple formazan crystals formed in viable cells were dissolved in DMSO (100 μL). Optical densities were measured at 570 nm using the BioTek H1 Synergy microplate reader. […] Evaluation was based on means from at least three independent experiments, each comprising six replicates per concentration level. For experiments with inhibitors, MDA-MB-231 cells were seeded at the seeding density of 8000 cells per well (8×10^4 cells/mL).

MDA-MB-231 cells [5] = tested on: MDA-MB-231 cells; remark: listed apart in the source
Protocol: Mitochondrial bioenergetics (MitoStress assay): Oxygen Consumption Rate (OCR) was monitored by using Seahorse XF^e24 Cell MitoStress Test Kit (Seahorse Bioscience). Prior to the assay, XF sensor cartridges were hydrated. MDA-MB-231 cells were seeded onto XF^e24-well cell culture plates at a density of 4×10^4 cells/well in 250 μL DMEM complete growth medium and then incubated for 48 h at 37° C. in 5% CO2 incubator. The cells were subsequently exposed to compounds of interest at different concentrations for 24 hours. The wells were washed with 250 μL of pre-warmed Seahorse XF DMEM media, supplemented with 10 mM glucose, 1 mM sodium pyruvate and 2 mM glutamine, pH 7.4 and replaced with 525 μL of this media. The plate was incubated at 37° C. in a non-CO2 incubator for 1 hour before the measurement. Three baseline measurements of OCR were recorded and 1 μM of olygomycin (ATP synthase complex inhibitor), 1 μM of FCCP (ATP synthesis uncoupler trifluorocarbonylcyanide phenylhydrazone) and a mixture of 0.5 μM of antimycin-A (inhibitor of complex III) and 0.5 μM of rotenone (inhibitor of electron transfer from Fe-S center of complex I to ubiquinone) were added in sequence. OCR was measured using Seahorse XF^e24 Cell Bioanalyzer (Seahorse Biosciences). The media was removed from the wells and 60 μL of 0.1 M NaOH was added. After vigorous pipetting, the protein content was quantified by BCA assay and OCR was normalized per protein content.

MDA-MB-231 cells [6] = tested on: MDA-MB-231 cells; remark: listed apart in the source
Protocol: Glycolysis Stress Test assay: Extracellular acidification rate (ECAR) was monitored by using Seahorse XF^e24 Glycolysis Stress Test Kit (Seahorse Bioscience). Prior to the assay, XF sensor cartridges were hydrated. MDA-MB-231 cells were seeded onto XF^e24-well cell culture plates at a density of 4×10^4 cells/well in 250 μL DMEM complete growth medium and then incubated for 48 hours at 37° C. in 5% CO2 incubator. The cells were subsequently exposed to compounds of interest at different concentrations for 24 hours. The wells were washed with 250 μL of pre-warmed Seahorse XF DMEM media, supplemented with 100 mM glutamine, pH 7.4 and replaced with 525 μL of this media. The plate was incubated at 37° C. in a non-CO2 incubator for 1 hour before the measurement. Three baseline measurements of ECAR were recorded and 10 mM of glucose, 1 μM of olygomycin and 100 mM of 2-deoxyglucose (2-DG) were added in sequence. ECAR was measured using Seahorse XF^e24 Cell Bioanalyzer (Seahorse Biosciences). The media was removed from the wells and 60 μL of 0.1 M NaOH was added. After vigorous pipetting, the protein content was quantified by BCA assay and OCR was normalized per protein content.

BiP, CHOP, p-elF2α = conditions: 0.5 and 2EC50, 2, 6 and 24 hours
Protocol: (§3) Western blotting. MDA-MB-231 cells were seeded into Cellstar 6-well plates (Greiner Bio-One) at a density of 60×10^4 cells/well (2 mL per well). After the cells were allowed to resume exponential growth for 24 hours, they were exposed to compounds of interest at various concentrations for 2, 6 and 24 hours. The cells were washed twice with PBS and lysed with RIPA buffer (50-100 μL) and kept for 5-10 minutes at 4° C. The samples were sonicated in ice bath (3 times for 30 seconds). The supernatant was then collected after centrifugation (1.3×10^4 rpm, 4° C. for 15 minutes) and total protein content of each sample was quantified via Bradford's assay. Equal quantities of protein (50 μg) were reconstituted in loading buffer (5× Laemmli Buffer with 5% DTT) and heated at 100° C. for 10 minutes. Subsequently, the protein mixtures were resolved on a 8%, 10% or 12% SDS-PAGE gel by electrophoresis (90 V for 30 minutes followed by 120 V for 60 minutes) and transferred onto a nitrocellulose membrane (200 mA for 2 hours). The protein bands were visualised with Ponceau S stain solution and the nitrocellulose membranes were cut into strips based on the protein ladder. The membranes were washed with a TBS-T wash buffer (0.1% Tween-20 in 1×PBS) 3 times for 5 minutes. […] Immune complexes were detected with Luminata HRP substrates and analysed using enhanced chemiluminescence imaging. […]

[7] = tested on: c-Jun N-terminal kinase (JNK); conditions: MDA-MB-231, apparent after 24 hours
Protocol: as §3

[8] = tumor-bearing mice
Protocol: Organ distribution studies: At the experimental endpoint, the hearts were perfused with PBS immediately before the excision of the organs. Brain, liver, kidney, spleen, heart, lung, bone and tumor tissues were collected from each mouse and flash-frozen in liquid nitrogen. The organs of the vehicle-treated mouse were used for the measurements of the background. The organs were lyophilized for 4 days, weighed, mechanically minced and digested in 100 μl of ultrapure 65% HNO3 at 105° C. for 3 days. The resulting solution was diluted to 2% v/v HNO3 with ultrapure Milli-Q water. Gold content was measured by ICP-MS as described above.
Additionally, the Au biodistribution across various organs in tumor-bearing mice was assessed.

[9] = tested on: A2780 (ovarian carcinoma); assay: MTT cytotoxicity assay, A2780; conditions: read-out: EC50 A2780; MTT assay, exposure time 72 hours
Protocol: (§4) Human ovarian carcinoma cells A2780 and A2780cisR, and human breast adenocarcinoma MDA-MB-231 cells, murine hepatocytes TAMH and human cardiomyocytes AC10 were obtained from ATCC. […] The stock of cisplatin was commercially available clinical grade solution in saline buffer.
(§5) Inhibition of cell viability assay. The cytotoxicity of the compounds was determined by colorimetric MTT assay. The cells were harvested from culture flasks by trypsinization and seeded into Cellstar 96-well microculture plates at the seeding density of 6000 cells per well (6×10^4 cells/mL). TAMH and AC10 cells were seeded at 12000 and 5000 cells per well, respectively. After cells were allowed to resume exponential growth for 24 hours, they were exposed to drugs at different concentrations in media for 72 hours. The drugs were diluted in complete medium at the desired concentration and added to each well (100 μL) and serially diluted to other wells. After exposure for 72 hours, the media was replaced with MTT in media (5 mg/mL, 100 μL) and incubated for additional 45 minutes. Subsequently, the medium was aspirated and the purple formazan crystals formed in viable cells were dissolved in DMSO (100 μL). Optical densities were measured at 570 nm using the BioTek H1 Synergy microplate reader. […] Evaluation was based on means from at least three independent experiments, each comprising six replicates per concentration level.

[10] = tested on: LC3-II, p62, Ulk1 (Ser757); assay: Western blot, autophagy markers
Protocol: Western blotting. MDA-MB-231 cells were seeded into Cellstar 6-well plates (Greiner Bio-One) at a density of 60×10^4 cells/well (2 mL per well). After the cells were allowed to resume exponential growth for 24 hours, they were exposed to compounds of interest at various concentrations for 2, 6 and 24 hours. The cells were washed twice with PBS and lysed with RIPA buffer (50-100 μL) and kept for 5-10 minutes at 4° C. The samples were sonicated in ice bath (3 times for 30 seconds). The supernatant was then collected after centrifugation (1.3×10^4 rpm, 4° C. for 15 minutes) and total protein content of each sample was quantified via Bradford's assay. Equal quantities of protein (50 μg) were reconstituted in loading buffer (5× Laemmli Buffer with 5% DTT) and heated at 100° C. for 10 minutes. Subsequently, the protein mixtures were resolved on a 8%, 10% or 12% SDS-PAGE gel by electrophoresis (90 V for 30 minutes followed by 120 V for 60 minutes) and transferred onto a nitrocellulose membrane (200 mA for 2 hours). The protein bands were visualised with Ponceau S stain solution and the nitrocellulose membranes were cut into strips based on the protein ladder. The membranes were washed with a TBS-T wash buffer (0.1% Tween-20 in 1×PBS) 3 times for 5 minutes. Subsequently, they were blocked in 5% BSA (w/v) in wash buffer for 1 hour and incubated with the appropriate primary antibodies in 5% BSA (w/v) in wash buffer at 4° C. overnight. The membranes were washed with a wash buffer 3 times for 7 minutes. After incubation with HRP-conjugated secondary antibodies in 2% BSA (w/v) in wash buffer (room temperature, 2 hours), the membranes were washed with a wash buffer 4× for 5 minutes. Immune complexes were detected with Luminata HRP substrates and analysed using enhanced chemiluminescence imaging. Actin was used as a loading control. […]
One of the hallmarks of autophagy was the conversion of cytosolic LC3-I to autophagosome-bound LC3-II which was monitored by Western Blotting.

[11] = tested on: A2780cisR (ovarian carcinoma); assay: MTT cytotoxicity assay, A2780cisR
Protocol: as §4, §5

[12] = tested on: MDA-MB-231 (breast adenocarcinoma); assay: MTT cytotoxicity assay, MDA-MB-231; conditions: read-out: EC50 MDA-MB-231; MTT assay, exposure time 72 hours
Protocol: as §4, §5

MDA-MB-231 cells [13] = assay: Cellular accumulation of Au by ICP-MS; conditions: ICP-MS after 24 hour exposure at 1.4 μM
Protocol: Cellular accumulation of Au complexes was determined in MDA-MB-231 cells. Cells were seeded into Cellstar 6-well plates (Greiner Bio-one) at a density of 60×10^4 cells/well (2 mL per well). After the cells were allowed to resume exponential growth for 24 hours, they were exposed to compounds of interest at various concentrations for 24 hours at 37° C. The cells were washed twice with 1 mL of PBS and lysed with RIPA lysis buffer for 5-10 min at 4° C. The cell lysates were scraped from the wells and transferred to separate 1.5 mL microtubes. The supernatant was then collected after centrifugation (13000 rpm, 4° C. for 15 minutes) and total protein content of each sample was quantified via Bradford's assay. […] The resulting solution was diluted to 1 mL (2-4% v/v HNO3) with ultrapure Milli-Q water. Au content of each sample was quantified by ICP-MS. Re was used as an internal standard. […] Metal standards for calibration curve (0, 0.5, 1, 2, 5, 10, 20, 40 ppb) were freshly prepared before each measurement. All readings were made in triplicates in He mode.

[14] = tested on: TAMH (transforming growth factor-a transgenic mouse hepatocytes); assay: MTT toxicity assay in hepatocytes TAMH; conditions: read-out: EC50 TAMH, exposure time 72 hours
Protocol: (§6) Cell lines and culture conditions. Human ovarian carcinoma cells A2780 and A2780cisR, and human breast adenocarcinoma MDA-MB-231 cells, murine hepatocytes TAMH and human cardiomyocytes AC10 were obtained from ATCC.
Inhibition of cell viability assay. The cytotoxicity of the compounds was determined by colorimetric MTT assay. The cells were harvested from culture flasks by trypsinization and seeded into Cellstar 96-well microculture plates at the seeding density of 6000 cells per well (6×10^4 cells/mL). TAMH and AC10 cells were seeded at 12000 and 5000 cells per well, respectively. After cells were allowed to resume exponential growth for 24 hours, they were exposed to drugs at different concentrations in media for 72 hours. The drugs were diluted in complete medium at the desired concentration and added to each well (100 μL) and serially diluted to other wells. After exposure for 72 hours, the media was replaced with MTT in media (5 mg/mL, 100 μL) and incubated for additional 45 minutes. Subsequently, the medium was aspirated and the purple formazan crystals formed in viable cells were dissolved in DMSO (100 μL). Optical densities were measured at 570 nm using the BioTek H1 Synergy microplate reader. […] Evaluation was based on means from at least three independent experiments, each comprising six replicates per concentration level. […]

[15] = tested on: AC10 (human ventricular cardiomyocytes); assay: MTT toxicity assay in cardiomyocytes AC10; conditions: read-out: EC50 AC10; MTT assay, exposure time 72 hours
Protocol: as §6, §2

rat liver TrxR = target: T1, rat liver TrxR (Rattus norvegicus, UniProt O89049); assay: Thioredoxin reductase inhibition, DTNB reduction assay; conditions: read-out: IC50 TrxR; DTNB reduction assay, exposure time 30 min
T1 sequence (O89049 1-499): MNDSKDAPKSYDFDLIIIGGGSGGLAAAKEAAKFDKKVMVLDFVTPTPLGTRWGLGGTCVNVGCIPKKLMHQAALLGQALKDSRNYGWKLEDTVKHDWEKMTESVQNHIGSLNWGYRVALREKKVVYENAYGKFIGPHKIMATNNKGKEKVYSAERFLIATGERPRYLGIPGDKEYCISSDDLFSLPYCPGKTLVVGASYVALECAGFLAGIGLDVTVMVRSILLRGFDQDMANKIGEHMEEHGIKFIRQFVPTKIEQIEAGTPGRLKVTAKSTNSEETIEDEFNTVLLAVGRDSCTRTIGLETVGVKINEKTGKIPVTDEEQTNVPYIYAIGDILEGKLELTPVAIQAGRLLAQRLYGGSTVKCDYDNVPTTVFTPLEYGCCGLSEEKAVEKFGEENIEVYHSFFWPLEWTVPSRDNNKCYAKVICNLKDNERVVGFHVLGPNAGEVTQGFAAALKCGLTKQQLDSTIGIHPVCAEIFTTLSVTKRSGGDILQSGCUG
Protocol: Thioredoxin reductase inhibition assay. Assay was performed according to the protocol provided by the manufacturer. […] Compounds of interest were serially diluted at the separate 96-well plate and 4 μl of each concentration was added to the appropriate wells. The reaction mixture was incubated with gentle shaking (room temperature, 30 minutes). Subsequently, 6 μl of DNTB (100 mM) was added and incubated for an additional 3 minutes.
Compounds of interest at six different concentrations were incubated with the isolated rat liver TrxR enzyme in the presence of NADPH for 30 minutes, followed by 2 minutes incubation with the DNTB reagent.

MDA-MB-231 tumors [16] = assay: Histopathological examination of H&E-stained tumors (QuPath)
insulin receptor (IR) = insulin receptor (IR) (Homo sapiens, UniProt P06213); assay: Kinase screening, radioactive 33P-ATP filter-binding assay, IR; conditions: 10 μM of 3met
Protocol: (§7) Kinase screening was performed at the International Centre for Kinase profiling (University of Dundee, UK) according to literature procedure (Bain J, Plater L, Elliott M, Shpiro N, Hastie C J, McLauchlan H, et al. The selectivity of protein kinase inhibitors: a further update. Biochem J 2007; 408:297-315).

[17] = Stability in ammonium carbonate buffer by high resolution ESI-MS; conditions: ammonium carbonate buffer pH 7.4, 37° C., 1, 3 and 24 hours
Protocol: NMR and mass spectrometric (MS) methods were employed to characterize the stability of Au complexes in DMSO and aqueous media. ^1H NMR stability studies were performed over the period of 6-10 days in d^6-DMSO and D2O (1met*).

[18] = target: protein kinase B beta (PKBβ) (Homo sapiens, UniProt P31751, S474D); assay: Kinase screening, radioactive 33P-ATP filter-binding assay, PKBβ; conditions: 10 μM of 3met
Protocol: as §7

[19] = target: extracellular signal-regulated kinase 1 (ERK1) (Homo sapiens, UniProt P27361); assay: Kinase screening, radioactive 33P-ATP filter-binding assay, ERK1; conditions: 10 μM of 3met
extracellular signal-regulated kinase 1 (ERK1), sequence (P27361 whole entry): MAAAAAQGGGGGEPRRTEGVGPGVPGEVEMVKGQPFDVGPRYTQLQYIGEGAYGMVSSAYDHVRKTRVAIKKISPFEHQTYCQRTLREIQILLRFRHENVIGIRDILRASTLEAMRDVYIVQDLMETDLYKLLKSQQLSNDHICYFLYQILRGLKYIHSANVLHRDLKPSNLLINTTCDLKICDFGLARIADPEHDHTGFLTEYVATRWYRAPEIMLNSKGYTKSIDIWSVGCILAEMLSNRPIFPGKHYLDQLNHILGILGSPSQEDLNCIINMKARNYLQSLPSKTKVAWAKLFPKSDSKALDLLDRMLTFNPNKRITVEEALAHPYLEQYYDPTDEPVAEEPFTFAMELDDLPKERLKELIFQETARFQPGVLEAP
Protocol: as §7

protein kinase B beta (PKBβ), sequence (P31751 120-481 S474D limits assumed): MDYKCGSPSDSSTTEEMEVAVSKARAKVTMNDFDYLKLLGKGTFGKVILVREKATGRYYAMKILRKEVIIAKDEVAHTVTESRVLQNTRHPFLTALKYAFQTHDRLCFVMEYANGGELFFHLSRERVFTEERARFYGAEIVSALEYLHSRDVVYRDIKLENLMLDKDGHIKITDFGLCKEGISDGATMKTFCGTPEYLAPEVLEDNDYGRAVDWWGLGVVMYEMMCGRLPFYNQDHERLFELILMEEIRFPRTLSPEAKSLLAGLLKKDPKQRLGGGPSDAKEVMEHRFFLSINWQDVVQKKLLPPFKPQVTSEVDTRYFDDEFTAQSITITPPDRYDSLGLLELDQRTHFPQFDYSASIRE
insulin receptor (IR), sequence (P06213 1001-1382 limits assumed): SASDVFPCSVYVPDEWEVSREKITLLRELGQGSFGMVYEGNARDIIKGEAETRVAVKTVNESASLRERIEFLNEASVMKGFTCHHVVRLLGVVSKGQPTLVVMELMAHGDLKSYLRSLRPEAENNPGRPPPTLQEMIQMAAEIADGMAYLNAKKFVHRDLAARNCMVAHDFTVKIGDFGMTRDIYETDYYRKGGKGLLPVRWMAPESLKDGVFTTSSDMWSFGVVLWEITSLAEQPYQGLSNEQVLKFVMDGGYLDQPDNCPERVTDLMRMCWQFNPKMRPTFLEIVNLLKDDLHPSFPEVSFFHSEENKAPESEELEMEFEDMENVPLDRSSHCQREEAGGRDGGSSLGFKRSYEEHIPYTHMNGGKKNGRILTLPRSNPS

Structure (SMILES): CN(C)C1=[NH+][Au-]2([NH]C(N)=N1)[c]1ccccc1C(=O)c1cccc[n+]12.F[P-](F)(F)(F)(F)F (stereo not shown) [Compound 3met]
- decrease of peak area of 3met+ (M+) signal ([1]; 1 eq. GSH, ammonium carbonate): more than 27 fold
- increase of peak area of metformin signal (m/z 130.1078) ([1]; 1 eq. GSH, ammonium carbonate, after 3 hours): more than 5 fold
- reactivity towards GSH / ligand release in words ([1]; with GSH, HR-MS and UV-vis): time-dependent release of metformin
- weight loss ([2]; 20 mg/kg, day 6): 11% and 10%
- dose-limiting toxicity ([2]; histopathological changes): kidney and liver toxicity
- maximum tolerated dose (MTD) ([2]; intraperitoneal route, daily for 4-5 days): 15 mg/kg
- tumor growth (MDA-MB-231 tumors [3]; 15 mg/kg i.p., weeks 3, 4 and 5, vs vehicle): no tumor growth was observed after week 3
- deaths in drug-treated group (MDA-MB-231 tumors [3]; 15 mg/kg, 7 mice per group): Two mice died
- kidney histopathology (MDA-MB-231 tumors [3]; H&E, endpoint, 5 weeks): distorted glomeruli, dilated tubules, edema exudate, light necrosis
- liver histopathology (MDA-MB-231 tumors [3]; H&E, endpoint, 5 weeks): vacualization, fatty changes, periportal lymphoid infiltration and expansion of Disse space in A and B, and focal necrosis in C
- increase of 3met activity in presence of 3-MA (MDA-MB-231 cells [4]; 3-methyladenine 2 mM, 24 hours): more than 2 times
- abrogation of 3met-induced cell death by cycloheximide (MDA-MB-231 cells [4]; CHX 12.5 μM, 24 hours): ≈ 3.5 times
- abrogation of 3met activity by SP600125 (MDA-MB-231 cells [4]; JNK inhibitor SP600125 20 μM): ≈ 1.7 fold
- non-mitochondrial respiration (MDA-MB-231 cells [5]; 24 hours): not significantly inhibited
- mitochondrial bioenergetic parameters (OCR) (MDA-MB-231 cells [5]; 24 hours, increasing concentrations): dose-dependent progressive decrease of all mitochondrial bioenergetic parameters
- concentration significantly inhibiting mitochondrial respiration (MDA-MB-231 cells [5]; as low as): 1.5 µM
- glycolytic parameters (ECAR), low concentration (MDA-MB-231 cells [6]; 0.05 μM, 24 hours): significant increase of all glycolytic parameters
- glycolytic reserve (ECAR), higher concentration (MDA-MB-231 cells [6]; 1.5 μM, 24 hour exposure): significantly declined glycolytic reserve
- CHOP expression over time (BiP, CHOP, p-elF2α): time-dependent increase of CHOP
- JNK phosphorylation [7]: JNK phosphorylation already at 0.5 EC50 drug concentrations
- Au biodistribution in words [8]: selectively accumulated in tumors
- EC50 [9]: 150 ± 30 nM
- Ulk1 phosphorylation at Ser757 ([10]; 2EC50, 24 hours): marked dephosphorylation of Ulk1 at Ser757 site
- p62 levels ([10]; MDA-MB-231): increase of p62 levels
- LC3-II expression ([10]; MDA-MB-231, concentration- and time-dependent): significantly enhanced the expression of LC3-II
- RF (Resistance Factor) ([11]; IC50 (A2780cisR)/IC50 (A2780)): 4
- EC50 ([11]; read-out: EC50 A2780cisR, MTT assay, exposure time 72 hours): 530 ± 70 nM
- EC50 [12]: 720 ± 80 nM
- Cellular accumulation MDA-MB-231 (MDA-MB-231 cells [13]): 1.37 ± 0.48 nmol Au/mg protein
- EC50 [14]: 2700 ± 700 nM
- EC50 [15]: 7400 ± 3000 nM
- IC50 (rat liver TrxR): 1.3 ± 0.3 nM
- inflammatory cells infiltration of tumors (MDA-MB-231 tumors [16]; H&E): marked inflammatory cells infiltration
- Area (MDA-MB-231 tumors [16]; single tumor image): 23769502 μm^2 and 27637537.7 μm^2 and 28709913 μm^2
- Necrosis % (MDA-MB-231 tumors [16]; single tumor image): 32.52% and 41% and 26.24%
- Necrosis area (MDA-MB-231 tumors [16]; single tumor image): 7.73 mm^2 and 11.33 mm^2 and 7.533 mm^2
- Perimeter (MDA-MB-231 tumors [16]; single tumor image): 20891.3 μm and 25672.2 μm and 21813.3 μm
- Tumor % (MDA-MB-231 tumors [16]; single tumor image): 60.11% and 34.58% and 66.37%
- Tumor area (MDA-MB-231 tumors [16]; single tumor image): 14.29 mm^2 and 9.556 mm^2 and 19.05 mm^2
- inhibition of IR kinase (insulin receptor (IR)): 70%
- stability, detection of molecular ion [M]+ [17]: stable for 24 hours
- inhibition of PKBβ [18]: 100%
- inhibition of ERK1 [19]: 90%
